Source: the supplement of paper PMC5908809

Legend:
[1] = system: normal NK cells expanded with K562-aAPC; experiment: percent inhibition of viability; higher = more inhibition; conditions: 72 h, IL-2 2.5 ng/mL
Method: (§1)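 Drug sensitivity and resistance testing on K562-aAPC-expanded normal NK cells: 5 concentrations (10-fold steps over a 10,000-fold range), 72 h at 37 °C, viability by CellTiter-Glo normalised to DMSO and benzethonium chloride controls; DSS from the fitted curve.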

[2] = system: DERL-7 (IL-2 2.5 ng/mL); experiment: as above; conditions: 72 h
[3] = system: IMC-1 (IL-2 20 ng/mL); experiment: as above; conditions: 72 h
[4] = system: KAI3 (IL-2 2.5 ng/mL); experiment: as above; conditions: 72 h
[5] = system: KHYG-1 (IL-2 2.5 ng/mL); experiment: as above; conditions: 72 h
[6] = system: NK-92 (IL-2 2.5 ng/mL); experiment: as above; conditions: 72 h
[7] = system: NK-YS (IL-2 2.5 ng/mL); experiment: as above; conditions: 72 h
[8] = system: NKL (IL-2 2.5 ng/mL); experiment: as above; conditions: 72 h
[9] = system: SNK-6 (IL-2 2.5 ng/mL); experiment: as above; conditions: 72 h
[10] = system: YT (IL-2 2.5 ng/mL); experiment: as above; conditions: 72 h
[11] = system: normal primary NK cells, pool 1 (3 donors) (IL-2 2.5 ng/mL); experiment: as above; conditions: 72 h
[12] = system: normal primary NK cells, pool 1 (3 donors), resting (IL-2 0 ng/mL); experiment: as above; conditions: 72 h
[13] = system: normal primary NK cells, pool 2 (3 donors) (IL-2 2.5 ng/mL); experiment: as above; conditions: 72 h
[14] = system: normal primary NK cells, pool 3 (3 donors) (IL-2 2.5 ng/mL); experiment: as above; conditions: 72 h
[15] = system: normal NK cells expanded with K562-aAPC; experiment: drug sensitivity score (DSS) (DSS units); higher = more sensitive; extreme values may be limits of the assay; conditions: 72 h; IL-2 2.5 ng/mL
Method: as §1

[16] = system: DERL-7 (IL-2 2.5 ng/mL); experiment: as above; conditions: 72 h
[17] = system: IMC-1 (IL-2 20 ng/mL); experiment: as above; conditions: 72 h
[18] = system: KAI3 (IL-2 2.5 ng/mL); experiment: as above; conditions: 72 h
[19] = system: KHYG-1 (IL-2 2.5 ng/mL); experiment: as above; conditions: 72 h
[20] = system: NK-92 (IL-2 2.5 ng/mL); experiment: as above; conditions: 72 h
[21] = system: NK-YS (IL-2 2.5 ng/mL); experiment: as above; conditions: 72 h
[22] = system: NKL (IL-2 2.5 ng/mL); experiment: as above; conditions: 72 h
[23] = system: SNK-6 (IL-2 2.5 ng/mL); experiment: as above; conditions: 72 h
[24] = system: YT (IL-2 2.5 ng/mL); experiment: as above; conditions: 72 h
[25] = system: normal primary NK cells, pool 1 (3 donors) (IL-2 2.5 ng/mL); experiment: as above; conditions: 72 h
[26] = system: normal primary NK cells, pool 1 (3 donors), resting (IL-2 0 ng/mL); experiment: as above; conditions: 72 h
[27] = system: normal primary NK cells, pool 2 (3 donors) (IL-2 2.5 ng/mL); experiment: as above; conditions: 72 h
[28] = system: normal primary NK cells, pool 3 (3 donors) (IL-2 2.5 ng/mL); experiment: as above; conditions: 72 h

C[C@@H]1COC(Nc2ccc3ncnc(Nc4ccc(OCc5nccs5)c(Cl)c4)c3c2)=N1 [Varlitinib] (max concentration tested 10000 nM)
percent inhibition of viability [%]
Conditions | 1 nM | 10 nM | 100 nM | 1000 nM | 10000 nM
[1] | -1.48 | 1.48 | 0.78 | 6.23 | 6.06
[2] | 1.37 | -3.89 | -4.97 | -5.43 | -2.66
[3] | -2.91 | 6.3 | 4.06 | 14.6 | 34
[4] | 0.52 | 0.69 | -2.99 | 5.18 | 9.75
[5] | 0.82 | -0.44 | 4.79 | 10.6 | 19.4
[6] | -5.14 | -6.85 | 0.79 | 4.69 | 35.3
[7] | 2.18 | -3.81 | 2.34 | 4.33 | 12.3
[8] | 1.14 | 7.53 | 8.83 | 12.6 | 17.6
[9] | 7.32 | 23.1 | 18.9 | 25.6 | 29.6
[10] | 3.61 | 0.68 | 4.78 | 8.48 | 12.2
[11] | -1.41 | -12.3 | 1.76 | -7.07 | 4.85
[12] | -8.46 | -19.4 | -14.8 | -23.5 | -3.47
[13] | -7.11 | -4.04 | 6.91 | 1.02 | 9.32
[14] | -15.9 | -6.58 | -0.23 | -16.5 | 3.13

Conditions | drug sensitivity score
[15] | 0
[16] | 0
[17] | 2.92
[18] | 0
[19] | 1.18
[20] | 2.45
[21] | 0.1
[22] | 1.5
[23] | 8.77
[24] | 0.09
[25] | 0
[26] | 0
[27] | 0
[28] | 0

C1=N/C2=N/c3ccc(OCCN4CCCC4)c(c3)COC/C=C/COCc3cccc(c3)C(=C1)N2 [Pacritinib] (max concentration tested 10000 nM)
percent inhibition of viability [%]
Conditions | 1 nM | 10 nM | 100 nM | 1000 nM | 10000 nM
[1] | -2.28 | -6.13 | 9.28 | 58.8 | 99.4
[2] | -0.5 | 3.08 | 13.1 | 64.9 | 99.9
[3] | -5.72 | -0.5 | -10.2 | -17.7 | 98.5
[4] | -4.38 | 0.97 | 8.91 | 68.1 | 102
[5] | -2.5 | -2.14 | -0.78 | 61.7 | 102
[6] | -16.4 | -11.8 | 1.4 | 37.9 | 100
[7] | -5.53 | 0.76 | 3.37 | 50.8 | 102
[8] | -10.8 | -10.3 | -2.07 | 65.3 | 102
[9] | -2.06 | 1.27 | -10.4 | 30.5 | 99.4
[10] | -5.32 | -0.86 | -1.84 | 55.9 | 102
[11] | 2.77 | -5.07 | 8.34 | 82.1 | 99.9
[12] | -8.26 | -5.07 | -1.15 | 60.6 | 99.4
[13] | -8.58 | 0.56 | 8.47 | 82.3 | 95.9
[14] | -10.8 | -10.8 | 0.28 | 75.3 | 98.7

Conditions | drug sensitivity score
[15] | 12.8
[16] | 14.1
[17] | 4.5
[18] | 14.2
[19] | 12.8
[20] | 10.7
[21] | 11.7
[22] | 13.1
[23] | 9.9
[24] | 12.2
[25] | 16.2
[26] | 12.6
[27] | 16.2
[28] | 14.1
